The text below walks through data of ChEMBL document CHEMBL1201862, “PubChem BioAssay data set” (2004).

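Results reflect a 48-hour exposure of cells in 96-well plates to compound at five concentrations. Abbreviation: GI50, concentration required for 50% inhibition of growth.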 Calls of active or inactive are those of the source. Cut-off read from the data, not from the text of the source: active = GI50 up to about 1.1 µM and inactive = higher. Some results are limits rather than exact numbers.

What all share (assay): NCI anticancer screen, dose series, 48 h
The test system of test [1] is A498.
In test [2] the test system is A549.
In test [3] the test system is BT-549.
The subject of test [4] is COLO 205.
For test [5], the system named is DMS-114.
Test [6] relates to HCC 2998.
For test [7], the system named is Hs-578T.
For test [8], the system named is IGROV-1.
The subject of test [9] is K562.
In test [10] the test system is LOX IMVI.
Test [11] concerns MOLT-4.
The subject of test [12] is NCI-H522.
Test [13] concerns NCI/ADR-RES.
The subject of test [14] is OVCAR-8.
Test [15] has as its system RPMI-8226.
For test [16], the system named is SK-MEL-28.
The test system of test [17] is SK-MEL-5.
The test system of test [18] is SK-OV-3.
The subject of test [19] is SNB-19.
The test system of test [20] is SR.

Turning to `CCc1ccccc1N1CCN(C(=O)c2cc(OC)c(OC)c(OC)c2)CC1`, the GI50 is 0.0303 µM (active) in test [1]; 0.0452 µM (active) in test [2]; 0.0361 µM (active) in test [3]; 0.0219 µM (active) in test [4]; 0.0561 µM (active) in [5]; 0.0585 µM (active) in [6]. The GI50 in test [7] was 0.0144 µM (active); in test [8], 0.0462 µM (active); in test [9], 0.0235 µM (active); in test [10] it was 0.0307 µM (active); in test [11], 0.148 µM (active); in [12], 0.0134 µM (active). Further, the GI50 in test [13] is 0.0151 µM (active); in test [14] it was 0.0914 µM (active); in test [15], 0.149 µM (active); in [16], 0.251 µM (active); in test [17] it was 0.0154 µM (active); in test [18], 0.0375 µM (active). The GI50 in test [19] is 0.067 µM (active); in test [20] it was 0.0893 µM (active).

As to `COc1cc2c[n+](C)c3c4ccccc4ccc3c2cc1OC.COc1cc2cnc3c4ccccc4ccc3c2cc1OC`, the GI50 in test [2] was 2.54 µM (inactive); in test [3], 6.85 µM (inactive); in test [4], 2.86 µM (inactive); in test [5] it was 2.31 µM (inactive); in [6], 8.47 µM (inactive); in [7] it was 2.31 µM (inactive). The GI50 was 11.8 µM (inactive) in test [8]; 9.55 µM (inactive) in test [9]; 11.5 µM (inactive) in [10]; 1.46 µM (inactive) in test [11]; 1.22 µM (inactive) in [12]; 10 µM (inactive) in [13]. The GI50 in [14] was 12.1 µM (inactive); in test [15], 8.11 µM (inactive); in test [16], 5.5 µM (inactive); in test [17], 14.9 µM (inactive); in test [18] it was 9.29 µM (inactive); in test [19], 3.94 µM (inactive). For the same compound, the GI50 in [20] was 4.42 µM (inactive).

Turning to `C=CCNc1nc2c(s1)C(=O)c1ccccc1C2=O`, the GI50 in test [1] is 19.5 µM (inactive); in [2] it was 6.43 µM (inactive); in test [4], 20.1 µM (inactive); in test [5], 1.77 µM (inactive); in test [6] it was 20.7 µM (inactive); in test [7], 32.1 µM (inactive). In addition, the GI50 in test [8] is 8.73 µM (inactive); in test [9] it was 4.76 µM (inactive); in test [10], 4.31 µM (inactive); in [11] it was 2.26 µM (inactive); in [12], 6.41 µM (inactive); in test [13] it was 15.4 µM (inactive). For the same compound, the GI50 was 3.73 µM (inactive) in test [14]; 3.12 µM (inactive) in test [15]; 9.71 µM (inactive) in test [16]; 1.7 µM (inactive) in [17]; 17.9 µM (inactive) in test [18]; 14.9 µM (inactive) in [19]. For the same compound, the GI50 in test [20] was 3.43 µM (inactive).

Take `NNC(=O)/C(=C/c1ccc(Cl)cc1Cl)NC(=O)c1ccccc1`: the GI50 in test [1], in [2], in [4], in test [5], in test [6] and in test [8] was > 100 µM (inactive) in each case. The GI50 in test [9] is 71.4 µM (inactive); in test [10], > 100 µM (inactive); in test [11], 60.5 µM (inactive); in test [12], > 100 µM (inactive); in test [14] it was > 100 µM (inactive); in test [15], 86.7 µM (inactive). In addition, the GI50 in test [16], in test [17], in [18], in test [19] and in test [20] was > 100 µM (inactive) throughout.

In the case of `[O-][Cl+3]([O-])([O-])[O-].c1ccc(-c2csc3c4ccccc4c4ccccc4[n+]23)cc1`, the GI50 in [1] was 14.8 µM (inactive); in [2], 2.17 µM (inactive); in test [4] it was 2.25 µM (inactive); in test [5], 0.394 µM (active); in [6], 1.54 µM (inactive); in test [8], 3.95 µM (inactive). The GI50 in test [9] is 0.708 µM (active); in test [10], 4.58 µM (inactive); in test [11] it was 2.18 µM (inactive); in [12], 1.67 µM (inactive); in test [14] it was 2.59 µM (inactive); in test [15] it was 4.55 µM (inactive). Also, the GI50 in test [16] was 2.7 µM (inactive); in test [17], 0.971 µM (active); in test [18], 13.9 µM (inactive); in test [19], 2.15 µM (inactive); in test [20], 4.99 µM (inactive).
